Inhibition in vivo, IC50 and Activity data for five molecules are collected here from ChEMBL document CHEMBL1139134, “Synthesis and cytotoxic activity of 17-carboxylic acid modified 23-hydroxy betulinic acid ester derivatives” (Bioorg Med Chem Lett, 2007).

Test [1] deals with H22. As to the kind of experiment: Antitumor activity in H22 cells xenografted ICR mouse assessed as tumor growth inhibition at 20 mg/kg, ip after 4 days. To be noted: 96 h, route intraperitoneal. Format: functional.
The test system of a further test is Bel-7402. As to the kind of experiment: Cytotoxicity against human BEL-7402 cells by MTT assay. The format is functional, cell-based. Background: Tetrazolium assays rely on reduction of a dye to a coloured formazan, in cell work by metabolically active cells.
The test system of the next test is A549. As to the kind of experiment: Cytotoxicity against human A549 cells by MTT assay. Format: functional, cell-based.
Another test concerns C6. The test is described as follows: Cytotoxicity against […] by MTT assay.
The test system of test [2] is B16. The test is described as follows: Cytotoxicity against mouse B16 cells by MTT assay. Format: functional, cell-based.
The test system of test [3] is H22. As to the kind of experiment: Antitumor activity in H22 cells xenografted ICR mouse assessed as tumor weight at 20 mg/kg, ip after 4 days. Format: functional. As to conditions: route intraperitoneal.
In test [4] the test system is B16. As to the kind of experiment: Antitumor activity in B16 cells xenografted ICR mouse assessed as tumor growth inhibition at 20 mg/kg, ip after 11 days. Format: functional. To be noted: 264 h, route intraperitoneal.
Test [5] deals with B16. As to the kind of experiment: Antitumor activity in B16 cells xenografted ICR mouse assessed as tumor weight at 20 mg/kg, ip after 11 days. Format: functional. To be noted: route intraperitoneal.
Test [6] in a line: Cytotoxicity against human SF763 cells by MTT assay. The format is functional, cell-based.
In test [7] the test system is H22. The test is described as follows: Antitumor activity in H22 cells xenografted ICR mouse assessed as tumor growth inhibition at 30 mg/kg, iv after 4 days. As to conditions: 96 h, read-out: Inhibition.
For test [8], the system named is B16. The test is described as follows: Antitumor activity in B16 cells xenografted ICR mouse assessed as tumor growth inhibition at 25 mg/kg, iv after 11 days. The format is functional. As to conditions: B16, 264 h.
For test [9], the system named is B16. The test is described as follows: Antitumor activity in B16 cells xenografted ICR mouse assessed as tumor weight at 25 mg/kg, iv after 11 days. The format is functional.

In general, IC50 refers to the concentration at which inhibition is half-maximal. The low end stands for higher potency, the high end for lower potency. For the molecule `C=C(C)[C@@H]1CC[C@]2(C(=O)O)CC[C@]3(C)[C@H](CC[C@@H]4[C@@]5(C)CC[C@H](O)[C@@](C)(CO)[C@@H]5CC[C@]43C)[C@@H]12`, the inhibition in vivo at 20 mg/kg with H22 [1] is 10.1%; with B16 [4], 13.3%. Besides, the concentration for half-maximal inhibition (IC50) in the test with Bel-7402 came out at 97.3 µM; in the test with A549, 87.6 µM; in the test with C6, 99.5 µM; with B16 [2], 83 µM; in [6], 105 µM. For the same molecule, the Activity worked out at 1.42 g with H22 [3] and 1.76 g in the test on B16 [5].

`C=C(C)[C@@H]1CC[C@]2(C(=O)OCC#CC)CC[C@]3(C)[C@H](CC[C@@H]4[C@@]5(C)CC[C@H](O)[C@@](C)(CO)[C@@H]5CC[C@]43C)[C@@H]12`: the IC50 in the test with Bel-7402 is 53 µM; in the test with A549 it was 81.1 µM; with C6 it was 75.9 µM; in the test with B16 [2], 63.1 µM; in [6], 64.3 µM.

For `C=C(C)[C@@H]1CC[C@]2(C(=O)O)CC[C@]3(C)[C@H](CC[C@@H]4[C@@]5(C)CC[C@H](O)C(C)(C)[C@@H]5CC[C@]43C)[C@@H]12` [BETULINIC ACID], the IC50 in the test with Bel-7402 turned out to be 43.4 µM; in the test with A549 it was 97.5 µM; in the test with C6, 90.7 µM; with B16 [2], 53.5 µM; in test [6] it was 92.1 µM.

With `O=P1(N(CCCl)CCCl)NCCCO1` (configuration not stated) [CYCLOPHOSPHAMIDE ANHYDROUS], the inhibition in vivo at 30 mg/kg in the test on H22 [7] is 56.3%.

Consider `O=c1[nH]cc(F)c(=O)[nH]1` [FLUOROURACIL], for which, in the test on B16 [8], the inhibition in vivo at 25 mg/kg came to 72.4%. Besides, the Activity with B16 [9] is on record as 0.56 g.
